# Laboratory results taken from US6613942B1 (Novo Nordisk A/S, priority 1997, dated 2003).
# Target: rat liver receptor (Rattus norvegicus, UniProt P30082)
# Details: literature, Bioorganic and Medicinal Chemistry Letters 2(9):915-918; cited from earlier work
# Sequence of rat liver receptor (P30082 27-485): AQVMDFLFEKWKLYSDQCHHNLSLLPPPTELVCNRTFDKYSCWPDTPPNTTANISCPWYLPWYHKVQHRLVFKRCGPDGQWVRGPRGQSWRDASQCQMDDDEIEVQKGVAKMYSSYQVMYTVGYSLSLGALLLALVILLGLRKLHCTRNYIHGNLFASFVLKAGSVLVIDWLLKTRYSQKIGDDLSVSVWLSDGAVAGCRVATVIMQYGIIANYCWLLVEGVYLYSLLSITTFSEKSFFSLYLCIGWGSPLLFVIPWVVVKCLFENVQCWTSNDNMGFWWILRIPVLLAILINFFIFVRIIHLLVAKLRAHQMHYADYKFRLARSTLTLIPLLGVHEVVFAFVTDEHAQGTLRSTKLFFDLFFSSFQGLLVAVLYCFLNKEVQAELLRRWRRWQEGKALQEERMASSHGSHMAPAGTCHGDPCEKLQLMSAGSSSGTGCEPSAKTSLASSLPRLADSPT
row,Structure (SMILES),displacement of glucagon from the rat liver receptor
1,"CN(C)CCCN(C)c1nc2cc(Cl)c(Cl)cc2nc1C=Cc1ccccc1 [(2-styryl-3-[3-(dimethylamino)propylmethyl-amino]-6,7-dichloroquinoxaline]",displace glucagon from the rat liver receptor

# Tested on: not given
# Details: not given
row,Structure (SMILES),melting point
1,"CCN(CC)CCN(CCOc1ccc(/C=N/NC(=O)c2ccc(O)c(Cl)c2)c2ccccc12)Cc1ccc(OC(F)(F)F)cc1 [Example 143, 3-Chloro-4-hydroxybenzoic Acid {4-[2-[N′-(2-N,N-Diethylaminoethyl)-N′-(4-trifluoromethoxy-benzylamino)]]ethoxy-1-naphthylmethylene}hydrazide]",134 to 136 °C
2,"COc1cc(OCCN2CCc3ccccc3C2)ccc1/C=N/NC(=O)c1ccc(O)c(N)c1 [Example 792, 3-Amino-4-hydroxybenzoic Acid {4-[2-(1,2,3,4-Tetrahydro-isoquinolin-2-yl)ethoxy]-2-methoxybenzylidene}hydrazide]",162 to 164 °C
3,"COc1cc(/C=N/NC(=O)c2ccc(O)c(N)c2)cc(OC)c1OCc1ccc(C(C)C)cc1 [Example 793, 3-Amino-4-hydroxybenzoic Acid [4-(4-Isopropylbenzyloxy)-3,5-dimethoxybenzylidene]-hydrazide]",174 to 175 °C
4,"COc1cc(OCC(=O)NC2CCN(Cc3ccccc3)C2)ccc1/C=N/NC(=O)c1ccc(O)c(N)c1 [Example 794, (R)-2-{4-[(3-Amino-4-hydroxybenzoyl)hydrazonomethyl]-3-methoxyphenoxy}-N-(1-benzylpyrrolidin-3-yl)acetamide]",157 to 160 °C
5,"Nc1cc(C(=O)N/N=C/c2ccc(OCC(=O)N[C@@H]3CCN(Cc4ccccc4)C3)c3ccccc23)ccc1O [Example 795, (R)-2-{4-[(3-Amino-4-hydroxybenzoyl)hydrazonomethyl]naphthyl-1-yloxy}-N-(1-benzylpyrrolidin-3-yl)acetamide]",187 to 192 °C
6,"Nc1cc(C(=O)N/N=C/c2ccc(OCC(=O)N[C@H]3CCN(Cc4ccccc4)C3)c3ccccc23)ccc1O [Example 797, (S)-2-{4-[(3-Amino-4-hydroxybenzoyl)hydrazonomethyl]naphthyl-1-yloxy}-N-(1-benzylpyrrolidin-3-yl)acetamide]",192 to 193 °C
7,COc1cc(NC(=O)COc2ccc(OC(F)(F)F)cc2)ccc1/C=N/NC(=O)c1ccc(O)c(Cl)c1 [Example 804],235 to 236.5 °C
8,"COc1cc(NC(=O)c2ccc3ccccc3n2)ccc1/C=N/NC(=O)c1ccc(O)c(Cl)c1 [Example 805, Quinoline-2-carboxylic Acid (4-[(3-Chloro-4-hydroxybenzoyl)hydrazonomethyl]-3-methoxyphenyl}amide]",236 to 238 °C
9,"COc1cc(/C=N/NC(=O)c2ccc(O)c(Cl)c2)ccc1NC(=O)COc1ccc(OC(F)(F)F)cc1 [Example 806, N-{4-[(3-Chloro-4-hydroxybenzoyl)hydrazonomethyl]-2-methoxyphenyl}-2-(4-trifluoromethoxyphenoy)acetamide]",216 to 218 °C
10,"COc1cc(/C=N/NC(=O)c2ccc(O)c(Cl)c2)ccc1NC(=O)c1ccc2ccccc2n1 [Example 807, Quinoline-2-carboxylic Acid {4-[(3-Chloro-4-hydroxybenzoyl)hydrazonomethyl]-2-methoxyphenyl}amide]",159 to 162 °C
11,"COc1cc(NC(=O)COc2ccc(Cl)cc2)ccc1/C=N/NC(=O)c1ccc(O)c(Cl)c1 [Example 808, N-(4-[(3-Chloro-4-hydroxybenzoyl)hydrazonomethyl]-3-methoxyphenyl}-2-(4-chlorophenoxy)acetamide]",216 to 218 °C
